Experiments:
[1] = test system: animal models of inflammation; conditions: in vivo; cited from earlier work
[2] = ACT-03 (Example 2): weights and survival; assay type: in vivo, Syrian Golden Hamsters; conditions: for Survival (animal status in score table): individual animal, by day 6
Source text: All animals were weighed daily and their survival recorded, in order to assess possible differences in animal weight among treatment groups as an indication for mucositis severity and/or possible toxicity resulting from the treatments.
All seventy-two (72) male Syrian Golden Hamsters were given an acute radiation dose of 40 Gy directed to their left buccal cheek pouch. This was accomplished by anesthetizing the animals and everting the left buccal pouch, while protecting the rest of the animal with a lead shield. Test materials were given either topically or by ip injection twice daily as detailed in Table 5. Mucositis was evaluated clinically starting on day 6, and continuing on alternate days until day 28. The study timeline is depicted in FIG. 7. Dose levels were determined based on the results of a previous acute toxicity study (data not published), and in the prior mucositis study of Example 1, shown in Table 5.
Male LVG Syrian Golden Hamsters (Charles River Laboratories), aged 5 to 6 weeks, with average body weight of […] at study commencement, were used. Animals were individually numbered using an ear punch and housed in small groups of approximately 8 animals per cage. Animals were acclimatized prior to study commencement. During this period of 3 days, the animals were observed daily in order to reject animals that presented in poor condition.
The significance of these differences was evaluated by calculating the mean area under the curve for the percentage weight gain for each animal and comparing the groups using a One-Way ANOVA test. There were significant differences between the vehicle control group and the group treated with M40403 at 30 mg/kg/dose once daily from day −1 to day 3 (P=0.039), he group treated with M40403 at 3 mg/kg/dose twice daily from day −1 to day 3 (P=0.040), the group treated with M40403 at 10 mg/kg/dose twice daily from day −1 to day 3 (0.018), the group treated with M40403 at 30 mg/kg/dose twice daily from day −1 to day 3 (P<0.001), the group treated with M40403 at 30 mg/kg/dose once daily from day 0 to day 3 (P=0.009) and the group treated with M40403 at 30 mg/kg/dose twice daily from day 0 to day 3 (P=0.002).

## [Cl-].[Cl-].[Mn+2].c1cc2nc(c1)CN[C@@H]1CCCC[C@H]1NCCN[C@@H]1CCCC[C@H]1NC2 [M40403]
[1]
  efficacy in animal models of inflammation: effective
[2]; 30 mg/kg once daily day 0 to 3
  deaths during the study, all on the day of radiation (Day 0): Two
[2]; 30 mg/kg once daily day −1 to 3
  deaths during the study, all on the day of radiation (Day 0): Two
[2]; 30 mg/kg once daily on day 0 and day 7 (so in the source)
  deaths during the study, all on the day of radiation (Day 0): One
[2]; 30 mg/kg twice daily day −1 to 3
  deaths during the study, all on the day of radiation (Day 0): Two
[2]; first study, group 9 (30 mg/kg/dose twice daily on day 0 and on day 7), animal 70, day 0
  survival status noted in Animal Weights table: dead
[2]; group 2
  Survival (animal status in score table): dead
[2]; group 5
  Survival (animal status in score table): dead
[2]; group 6
  Survival (animal status in score table): dead
[2]; hamster, in vivo, ip
  toxicity based on observations of body weight: appear to show some toxicity
[2]; hamster, in vivo, ip, 3 mg/kg
  P, One-Way ANOVA on mean AUC of percentage weight gain v vehicle control: 0.040
  average weight gain, % of starting weight during the study (day 28): 59.3%
[2]; hamster, in vivo, ip, 10 mg/kg
  P, One-Way ANOVA on mean AUC of percentage weight gain v vehicle control: 0.018
  average weight gain, % of starting weight during the study (day 28): 56.2%
[2]; hamster, in vivo, ip, 30 mg/kg
  statistically significant reduction in growth rate v control: did not exhibit some statistically significant reductions in growth rate
[2]; second study, group 6, animal 45 on day 0, animal 46 on day 1
  Survival (animal recorded dead in weight table): dead

Reference: US9642861B2, “Methods of treating oral mucositis” (priority 2006, dated 2017)
